Measurements: patent publication US20210038545A1 (priority 2018, published 2021)

Test system: S. pneumoniae
Conditions: mice colonized with IAV (H1N1, 7 dpi) microbiota; acetate five days before 1×10^6 CFUs; vs vehicle-treated transplanted animals; FIG. 4A

## CC(=O)O [acetate]
  resistance to S. pneumoniae challenge: more resistant
